The values that follow are results of earlier work, collected in PMC4131438 (ACS chemical biology, 2014).

The test system of data set [1] is pro-apoptotic BAX.
The conditions of data set [2]: BIM BH3 aa 146-166 template, staple at R154/E158 i, i+4.

Take “BIM BH3 peptide (aa 145-164): unmodified BIM BH3 peptide composed of amino acids 145-164”: the “binding to full-length BAX” value in data set [1] (aa 145-164 constructs) is recorded as “negligible binding”.

Take “BIM BH3 peptide (aa 146-166): unmodified BIM BH3 peptide, amino acids 146-166”: the “α-helical content in solution” value in data set [2] was 20%. Further, the “binding to pro-apoptotic BAX” value in data set [1] (fluorescence polarization binding assays, aa 146-166 constructs) is on record as “no detectable BAX interaction”.
